Measured values reported in US9908886B2 (Agency for Science, Technology and Research, priority 2012, dated 2018).
Entries after “also recorded” stand apart in the source; their conditions may differ. Like-named read-outs stand apart in the source and are kept apart here.

Columns and labels:
[1] = system: nuclear beta-catenin in BC-CML cells; assay: Immunofluorescence analysis of nuclear active beta-catenin; type: cell-based, human
Description: Cord Blood (CB) samples were purchased from the Singapore Cord Blood bank. CML samples were the Singapore General Hospital after signed informed consent under local IRB-approved procedures. MNCs were obtained using Ficoll separation, and CD34^+ cells selected by immunomagnetic beads (Miltenyi Biotech, Germany).
Cells (1×10^5) were cytospun onto glass slides, fixed with 4% paraformaldehye, and stained with mouse monoclonal antibodies against activated β-catenin (clone 8E7, Millipore, UK), or rabbit monoclonal antibodies against phospho-eIF4E S209 (EP2151Y, Abeam, UK). Slides were then stained with either PE-conjugated anti-mouse or FITC-conjugated anti-rabbit antibodies. Images were obtained with the use of a fluorescence microscope (Olympus IX71S1F3) at 40× magnification.

[2] = system: BCR-ABL activity (phosphorylation of CrKl) in K562 cells; assay: Western blot of CrKl phosphorylation in K562 cells; type: cell-based
Protocol: (§1) K562 cell line was obtained from the ATCC, and grown in RPMI supplemented with 10% FCS, L-glutamine, and penicillin/streptomycin.
(§2) Exponentially growing cells were plated at 2×10^5 cells/ml, and whole cell lysate processed for western blot analysis using antibodies recognizing eIF4E, phospho-eIF4E (Cell signaling Technology),

MNK2 = MNK2 (Homo sapiens (Human), UniProt Q9HBH9); assay: In vitro MNK kinase assay (Caliper LabChip mobility shift); type: biochemical; conditions: enzymatic, 250 μM ATP; read-out: IC50 Mnk2
MNK2, sequence (Q9HBH9 84-388): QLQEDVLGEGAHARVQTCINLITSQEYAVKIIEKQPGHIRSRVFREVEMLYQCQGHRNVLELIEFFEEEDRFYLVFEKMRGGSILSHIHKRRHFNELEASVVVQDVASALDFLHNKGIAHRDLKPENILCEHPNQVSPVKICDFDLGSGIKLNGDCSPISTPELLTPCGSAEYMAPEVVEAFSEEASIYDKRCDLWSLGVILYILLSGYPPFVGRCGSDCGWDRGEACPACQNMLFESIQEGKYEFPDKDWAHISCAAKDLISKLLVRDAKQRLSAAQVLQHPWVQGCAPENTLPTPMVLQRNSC

[3] = system: eIF4E phosphorylation in K562 cells; assay: Western blot of eIF4E phosphorylation in BC-CML cell line; type: cell-based; conditions: various concentrations, 24 h
Protocol: as §1, §2

[4] = system: K562 cells over-expressing eIF4E; assay: Cell cytotoxicity assay (CellTiter-Glo); type: cell-based; conditions: for change of IC50 with treatment duration, K562 cells over-expressing eIF4E: 48 hours extended to 6 days
Protocol: (§3) Cancer cell lines, MV-4-11 (leukemia), P116.c139 (acute T cell leukemia) and D1.1 (acute T cell leukemia), were purchased from ATCC and cultured according to supplier's recommendations. K562 cells (myelogenous leukemia) over-expressing eIF4E, were also used for the cytotoxicity assay. For cells treated for 48 hours, 5000 cells were seeded in 70 μl of growth medium in black, flat-bottom 96-well plate. For cells treated for six days, 1000 cells were seeded in 70 μl of growth medium in black, flat-bottom 96-well plate. […] 50 μl of the diluted compounds was added to the cells and incubated at 37° C. in 5% CO2. After 48 hours or six days treatment, cell viability was determined by CellTiter-Glo Luminescent Cell Viability Assay (Promega, Madison, Wis.). 120 μl of the reagent was added to the cells and luminescence was measured using Tecan Safire Reader. Data was analysed with Graphpad Prism software and the figures represented indicate the half maximal inhibitory concentration (IC50). Error bars denote standard deviation (SD).

MNK1 = MNK1 (Homo sapiens, UniProt Q9BUB5); assay: In vitro MNK kinase assay (Caliper LabChip mobility shift); type: biochemical; conditions: enzymatic, 1.2 mM ATP; read-out: IC50 Mnk1
D1.1 cells = assay: Cell cytotoxicity assay (CellTiter-Glo); type: cell-based
Protocol: as §3

MV-4-11 cells = assay: Cell cytotoxicity assay (CellTiter-Glo); type: cell-based
Protocol: as §3

P116.c139 cells = assay: Cell cytotoxicity assay (CellTiter-Glo); type: cell-based
Protocol: as §3

BC CD34+ CML cells = conditions: in vitro treatment of the cells; background section; cited from earlier work
[5] = system: nuclear beta-catenin in BC-CML cells; conditions: background section; cited from earlier work
[6] = system: TNF production by macrophage; conditions: TLR agonist stimulation; literature; cited from earlier work
[7] = system: eIF4E phosphorylation in BC GMPs; conditions: background section; cited from earlier work
[8] = system: patient-derived BC cells in NSG mice; conditions: in vivo treatment for three consecutive weeks; CGP57380 40 mg/kg/d, dasatinib 5 mg/kg/d; background section; cited from earlier work
[9] = system: CD34+ BC-CML primary cells; conditions: background section; including cells carrying T315I mutation; cited from earlier work

Row | SMILES | nuclear beta-catenin accumulation [1] | BCR-ABL activity (phosphorylation of CrKl) [2] | IC50 (MNK2) | eIF4E phosphorylation [3] | change of IC50 with treatment duration, K562 cells over-expressing eIF4E [4] | IC50 (MNK1) | eIF4E phosphorylation in BC GMPs [7] | serial transplantation of BC cells in NSG mice at 16 weeks [8] | ability of CD34+ BC cells to serially replate for more than 8 weeks in methylcellulose [9] | other results
1 | N#Cc1ccc(-c2cnc3ccc(-c4ccc(C(=O)N5CCOCC5)cc4)nn23)cc1 [Example 62, 4-(6-(4-(morpholine-4-carbonyl)phenyl)imidazo[1,2-b]pyridazin-3-yl)benzonitrile] | decrease in nuclear beta-catenin accumulation | decrease in BCR-ABL activity | < 100 nM | decrease in eIF4E phosphorylation; also recorded: prevent eIF4E phosphorylation | reduced by more than half | < 100 nM | – | – | – | –
2 | CC(=O)C1=C(O)C=C2Oc3c(C(N)=O)c(O)cc(O)c3[C@]2(C)C1=O [Cercosporamide, reference compound] | – | – | – | – | – | – | – | – | – | IC50 (D1.1 cells; 48 hours, read-out: IC50 after 48 hours of treatment, D1.1): 20.2 µM; IC50 (D1.1 cells; 6 days, read-out: IC50 after 6 days of treatment, D1.1): 17.3 µM; IC50 ([4]; 48 hours, read-out: IC50 after 48 hours of treatment, K562): > 50 µM; IC50 ([4]; 6 days, read-out: IC50 after 6 days of treatment, K562): 4.3 µM; IC50 (MV-4-11 cells; 48 hours, read-out: IC50 after 48 hours of treatment, MV-4-11): > 50 µM; IC50 (MV-4-11 cells; 6 days, read-out: IC50 after 6 days of treatment, MV-4-11): 4 µM; IC50 (P116.c139 cells; 48 hours, read-out: IC50 after 48 hours of treatment, P116.c139): > 50 µM; IC50 (P116.c139 cells; 6 days, read-out: IC50 after 6 days of treatment, P116.c139): 4.9 µM
3 | Nc1ncnc2n[nH]c(Nc3ccc(F)cc3)c12 [CGP57380] | – | – | – | – | – | – | inhibited eIF4E phosphorylation | prevented BC cells from serially transplanting NSG mice | impaired the ability of CD34+ BC cells | ability of BC CD34+ CML cells to engraft NSG mice (BC CD34+ CML cells): retarded their ability to engraft NSG mice; accumulation of active nuclear beta-catenin in BC GMPs [5]: preventes accumulation of active nuclear beta-catenin; production / release of TNF by macrophage [6]: inhibited by MNK kinases inhibitor CGP57380 in a dose dependant fashion; also recorded: inhibits the release of TNF alpha by macrophage
4 | CN1CCN(C(=O)c2ccc(-c3ccn4ncc(-c5ccc(C#N)cc5)c4n3)cc2)CC1 [Example 176, 4-(5-(4-(4-methylpiperazine-1-carbonyl)phenyl)pyrazolo[1,5-a]pyrimidin-3-yl)benzonitrile] | decrease in nuclear beta-catenin accumulation | decrease in BCR-ABL activity | < 100 nM | decrease in eIF4E phosphorylation; also recorded: prevent eIF4E phosphorylation | reduced by more than half | < 100 nM | – | – | – | –
5 | Cc1nc(Nc2ncc(C(=O)Nc3c(C)cccc3Cl)s2)cc(N2CCN(CCO)CC2)n1 [dasatinib] | – | – | – | – | – | – | not | not | only partially impaired | –
